Reference: patent publication US11382900B2, “Composition for preventing or treating sleep disorders” (AMOREPACIFIC CORPORATION, priority 2017, dated 2022)
Like-named read-outs stand apart in the source and are kept apart here.

Assays:
[1] = parameters: species or system C57BL/6 mice; conditions: in vivo; for increase in body temperature: C57BL/6, mouse, 2 h; for concentration dependence of body temperature increase: mouse
Method: As described above, AMG 517, a representative reference drug as a TRPV1 antagonist, and the compound of Formula 1 of the present invention were tested for the increase in body temperature during transdermal administration.

[2] = Change in body temperature after oral administration (nonclinical); type: in vivo, Balb/c mice; conditions: for change in body temperature, dose dependence: up to 4 hours, AMG 517 0.03, 0.1, 0.3 mg/kg, compound of Formula 1 3, 10, 30 mg/kg
Text: Meanwhile, when the same drug was orally administered, a concentration-dependent increase in body temperature due to TRPV1 antagonism was observed as expected (see FIGS. 2A and 2B).

[3] = rats, oral dose of 3 mg/kg; cited from earlier work
[4] = target: T1, TRPV1 (Rattus norvegicus, UniProt O35433); conditions: rats; cited from earlier work
T1 construct: host or cells: living rats (endogenous protein)

[5] = oral administration for treatment of dental pain; cited from earlier work

T1 sequence (O35433 whole entry): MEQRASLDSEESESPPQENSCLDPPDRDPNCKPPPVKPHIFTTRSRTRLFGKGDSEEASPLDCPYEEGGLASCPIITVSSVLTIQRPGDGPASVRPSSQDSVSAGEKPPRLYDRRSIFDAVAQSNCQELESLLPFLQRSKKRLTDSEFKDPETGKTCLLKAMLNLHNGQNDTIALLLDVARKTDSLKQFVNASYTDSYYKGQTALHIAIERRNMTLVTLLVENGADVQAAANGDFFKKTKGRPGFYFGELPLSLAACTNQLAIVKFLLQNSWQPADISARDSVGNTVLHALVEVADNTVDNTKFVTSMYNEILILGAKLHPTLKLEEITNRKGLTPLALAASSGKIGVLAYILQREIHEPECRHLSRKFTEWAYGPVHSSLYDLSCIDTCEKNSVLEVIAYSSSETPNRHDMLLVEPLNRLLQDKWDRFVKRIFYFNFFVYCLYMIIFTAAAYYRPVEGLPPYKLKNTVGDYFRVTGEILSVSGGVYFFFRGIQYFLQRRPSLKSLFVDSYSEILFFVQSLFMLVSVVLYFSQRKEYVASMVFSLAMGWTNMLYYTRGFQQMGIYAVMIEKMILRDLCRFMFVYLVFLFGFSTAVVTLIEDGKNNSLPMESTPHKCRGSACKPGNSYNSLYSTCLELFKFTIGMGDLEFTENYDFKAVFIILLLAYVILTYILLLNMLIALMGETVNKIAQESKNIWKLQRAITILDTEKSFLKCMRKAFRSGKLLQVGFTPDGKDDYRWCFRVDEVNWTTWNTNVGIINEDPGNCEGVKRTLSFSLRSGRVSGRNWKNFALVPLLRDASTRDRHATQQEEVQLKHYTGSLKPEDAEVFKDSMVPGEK

| SMILES | increase in body temperature [1] [°C] | concentration dependence of body temperature increase [1] | change in body temperature, dose dependence [2] | increase in body temperature [3] | effective concentration to maximize analgesic efficacy [4] | change in body temperature at lowest dose ([2]; 0.03 mg/kg) | body temperature raised in human [5] | hyperthermia side effect [5] |
| --- | --- | --- | --- | --- | --- | --- | --- | --- |
| CCCc1nc(C(F)(F)F)ccc1/C=C/C(=O)N[C@H](C)c1cc(F)c(NS(C)(=O)=O)c(F)c1 [compound of Formula 1] | ~0.84 | no concentration dependence was observed | increased body temperature in a dose—dependent manner |  |  |  |  |  |
| CC(=O)Nc1nc2c(Oc3cc(-c4ccc(C(F)(F)F)cc4)ncn3)cccc2s1 [AMG 517] | ~1.59 | significant concentration-dependent increase in body temperature | increased body temperature in a dose—dependent manner | about 1.3 °C | less than 0.3 mg/kg | significantly increased body temperature | up to 40 °C | concentration-dependent side effect of hyperthermia |
